Test results taken from patent US20030092636A1, “Treatment and prevention of paresthesia comprising co-therapy with anticonvulsant derivatives and potassium” (priority 2001, published 2003).
Like-named read-outs stand apart in the source and are kept apart here.

Columns and labels:
paresthesia = conditions: intravenous potassium chloride in combination with spirocolactone; patient with hypokalemia and painful leg paresthesia; cited from earlier work
[1] = infusion into an epidural catheter; cited from earlier work
paresthesias [2] = assay: Anecdotal case studies: potassium supplementation in patients with persistent paresthesias; assay type: in vivo, human
paresthesias [3] = assay: Single-patient case reports: potassium chloride given to patients with paresthesias while taking topiramate; assay type: in vivo, human; conditions: potassium chloride 20 mEq/day
Procedure: The patient was a person who had cluster headaches. The patient was taking topiramate at 150 mg/day. They complained of paresthesias. The patient was given potassium chloride at 20 mEq/day.
The patient was a person who had migraine headaches and who was taking topiramate at 150 mg/day. They complained of paresthesias and was given potassium chloride at 20 mEq/day.
The patient was a person who had migraine headaches and was taking topiramate at 200 mg/day. They complained of paresthesias and was given potassium chloride at 20 mEq/day.
The patient was a person who had migraine headaches and was taking topiramate at 125 mg/day. They complained of paresthesias and was given potassium chloride at 20 mEq/day.
The patient was a person who had migraine headaches and was taking topiramate at 50 mg/day. They complained of paresthesias and was given potassium chloride at 20 mEq/day.

seizures [4] = conditions: animal model of kindled epilepsy; cited from earlier work
seizures [5] = conditions: several rodent models of epilepsy; cited from earlier work
[6] = system: simple and complex partial seizures and secondarily generalized seizures; conditions: adjunctive therapy or monotherapy; human epilepsy; cited from earlier work
[7] = cited from earlier work

SMILES | outcome of treatment (paresthesia) | effect of inadvertent epidural infusion [1] | effect on persistent paresthesias (paresthesias [2]; patients complaining of persistent paresthesias, 20-40 meq/day potassium chloride) | effect on paresthesias and severity (paresthesias [2]; potassium chloride and food (orange juice and bananas) supplementation) | paresthesias outcome (paresthesias [3]; Example 3: person, cluster headaches, topiramate 150 mg/day, within 9 days) | paresthesias outcome (paresthesias [3]; Example 4: person, migraine, topiramate 150 mg/day, after about one month) | paresthesias outcome (paresthesias [3]; Example 5: person, migraine, topiramate 200 mg/day, after about two months) | paresthesias outcome (paresthesias [3]; Example 6: person, migraine, topiramate 125 mg/day, after about one month) | paresthesias outcome (paresthesias [3]; Example 7: person, migraine, topiramate 50 mg/day, after one month) | seizure block (seizures [4]) | seizure block (seizures [5]) | efficacy in treating seizures [6] | adverse event or side effect ([7]; patients treated for epilepsy, migraine headaches, bipolar disorder) | severity of the paresthesia ([7]; patients treated with topiramate)
[Cl-].[K+] [potassium chloride] | stabilization of serum potassium, disappearance of paresthesia and normalization of muscle function and ECG | paresis (slight paralysis or weakness of a limb) and/or painful paraesthesias in the patient's extremities | control of the paresthesias | effective in decreasing paresthesias and its severity | paresthesias had abated | paresthesias had abated | paresthesias had abated | paresthesias had abated | paresthesias had abated |  |  |  |  | 
CC1(C)O[C@@H]2[C@@H](CO[C@@]3(COS(N)(=O)=O)OC(C)(C)O[C@@H]23)O1 [topiramate, 2,3:4,5-bis-O-(1-methylethylidene)-β-D-fructopyranose sulfamate] |  |  |  |  |  |  |  |  |  | effectively block seizures | effectively block seizures | effective as adjunctive therapy or as monotherapy | paresthesia | mild to severe
